{"source": "patent US9416114B2", "about": "“1,2,4-triazine derivatives for the treatment of viral infections” (CENTRE NATIONAL DE LA RECHERCHE SCIENTIFIQUE (CNRS), priority 2012, dated 2016)", "type_in_all_cases": "cell-based", "key": {"human TLR7": {"biological_target": "T1, human TLR7 (Homo sapiens, UniProt Q9NYK1)", "T1 construct": "expressed in transfected cells; host or cells: HEK293", "T1 sequence (Q9NYK1 27-1049)": "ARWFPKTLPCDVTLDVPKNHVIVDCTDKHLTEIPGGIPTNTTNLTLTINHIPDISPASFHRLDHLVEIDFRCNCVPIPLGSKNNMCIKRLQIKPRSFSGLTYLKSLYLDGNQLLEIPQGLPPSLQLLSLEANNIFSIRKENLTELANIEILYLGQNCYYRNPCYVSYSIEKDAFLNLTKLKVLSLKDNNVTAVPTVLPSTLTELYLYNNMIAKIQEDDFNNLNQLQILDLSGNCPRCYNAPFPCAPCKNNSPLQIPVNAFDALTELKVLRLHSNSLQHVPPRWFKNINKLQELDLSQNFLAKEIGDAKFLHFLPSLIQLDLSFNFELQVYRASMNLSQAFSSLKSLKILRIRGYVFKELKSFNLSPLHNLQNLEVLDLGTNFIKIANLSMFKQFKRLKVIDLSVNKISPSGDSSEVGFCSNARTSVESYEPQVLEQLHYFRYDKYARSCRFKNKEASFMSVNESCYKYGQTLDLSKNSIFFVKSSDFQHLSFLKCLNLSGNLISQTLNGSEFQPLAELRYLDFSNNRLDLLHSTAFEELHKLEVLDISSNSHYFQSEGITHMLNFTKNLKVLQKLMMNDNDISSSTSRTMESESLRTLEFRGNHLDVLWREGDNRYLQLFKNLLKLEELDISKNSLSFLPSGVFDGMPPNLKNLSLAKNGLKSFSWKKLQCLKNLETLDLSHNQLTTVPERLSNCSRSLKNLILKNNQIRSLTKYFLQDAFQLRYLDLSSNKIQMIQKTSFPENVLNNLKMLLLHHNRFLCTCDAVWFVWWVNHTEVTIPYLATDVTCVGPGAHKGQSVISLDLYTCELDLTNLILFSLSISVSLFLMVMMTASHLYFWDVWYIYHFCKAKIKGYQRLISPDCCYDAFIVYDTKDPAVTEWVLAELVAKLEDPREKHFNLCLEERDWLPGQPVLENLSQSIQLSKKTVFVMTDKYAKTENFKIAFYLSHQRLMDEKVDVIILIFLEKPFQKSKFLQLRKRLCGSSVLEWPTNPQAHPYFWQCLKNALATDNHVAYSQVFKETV", "test": "TLR7 cellular reporter assay (HEK293, NFκB-luc)", "settings": "HEK293 transiently transfected with TLR7 and NFκB-luc; 6 hours incubation; lowest effective concentration", "procedure": "(§1) The ability of compounds to activate human TLR7 and/or TLR8 was assessed in a cellular reporter assay using HEK293 cells transiently transfected with a TLR7 or TLR8 expression vector and NFκB-luc reporter construct.\n(§2) Briefly, HEK293 cells were grown in culture medium (DMEM supplemented with 10% FCS and 2 mM Glutamine). For transfection of cells in 10 cm dishes, cells were detached with Trypsin-EDTA, transfected with a mix of CMV-TLR7 or TLR8 plasmid (750 ng), NFκB-luc plasmid (375 ng) and a transfection reagent and incubated overnight at 37° C. in a humidified 5% CO2 atmosphere. […] Thirty microliters of cells were then dispensed into each well in 384-well plates, where 10 μL of compound in 4% DMSO was already present. Following 6 hours incubation at 37° C., 5% CO2, the luciferase activity was determined by adding 15 μL of Steady Lite Plus substrate (Perkin Elmer) to each well and readout performed on a ViewLux ultraHTS microplate imager (Perkin Elmer). Dose response curves were generated from measurements performed in quadruplicates."}, "[1]": {"tested_on": "interferon-stimulated responsive elements (ISRE)", "test": "Activation of ISRE promoter elements by conditioned media from PBMC (HEK-ISREluc)", "settings": "Homo sapiens, read-out: HEK-ISRE luc (LEC)", "description": "The potential of compounds to induce IFN-I was also evaluated by measuring the activation of interferon-stimulated responsive elements (ISRE) by conditioned media from PBMC. The ISRE element of sequence […] is highly responsive to the STAT1-STAT2-IRF9 transcription factor, activated upon binding of IFN-I to their receptor IFNAR (Clontech, PT3372-5W). The plasmid pISRE-Luc from Clontech (ref. 631913) contains 5 copies of this ISRE element, followed by the firefly luciferase ORF. A HEK293 cell line stably transfected with pISRE-Luc (HEK-ISREluc) was established to profile of the conditioned PBMC cell culture media.\nBriefly, PBMCs were prepared from buffy coats of at least two donors using a standard Ficoll centrifugation protocol. Isolated PBMCs were resuspended in RPMI medium supplemented with 10% human AB serum and 2×10^5 cells/well were dispensed into 384-well plates containing compounds (70 μL total volume). After overnight incubation, 10 μL of supernatant was transferred to 384-well plates containing 5×10^3 HEK-ISREluc cells/well in 30 μL (plated the day before). Following 24 hours of incubation, activation of the ISRE elements was measured by assaying luciferase activity using 40 μL/well Steady Lite Plus substrate (Perkin Elmer) and measured with ViewLux ultraHTS microplate imager (Perkin Elmer). The stimulating activity of each compound on the HEK-ISREluc cells was reported as LEC value, defined as the compound concentration applied to the PBMCs resulting in a luciferase activity at least two fold above the standard deviation of the assay. The LEC in turn indicates the degree of ISRE activation on transfer of a defined amount of PBMC culture medium. Recombinant interferon α-2a (Roferon-A) was used as a standard control compound."}, "human TLR8": {"biological_target": "T2, human TLR8 (Homo sapiens, UniProt Q9NR97)", "T2 construct": "expressed in transfected cells; host or cells: HEK293", "T2 sequence (Q9NR97 27-1041)": "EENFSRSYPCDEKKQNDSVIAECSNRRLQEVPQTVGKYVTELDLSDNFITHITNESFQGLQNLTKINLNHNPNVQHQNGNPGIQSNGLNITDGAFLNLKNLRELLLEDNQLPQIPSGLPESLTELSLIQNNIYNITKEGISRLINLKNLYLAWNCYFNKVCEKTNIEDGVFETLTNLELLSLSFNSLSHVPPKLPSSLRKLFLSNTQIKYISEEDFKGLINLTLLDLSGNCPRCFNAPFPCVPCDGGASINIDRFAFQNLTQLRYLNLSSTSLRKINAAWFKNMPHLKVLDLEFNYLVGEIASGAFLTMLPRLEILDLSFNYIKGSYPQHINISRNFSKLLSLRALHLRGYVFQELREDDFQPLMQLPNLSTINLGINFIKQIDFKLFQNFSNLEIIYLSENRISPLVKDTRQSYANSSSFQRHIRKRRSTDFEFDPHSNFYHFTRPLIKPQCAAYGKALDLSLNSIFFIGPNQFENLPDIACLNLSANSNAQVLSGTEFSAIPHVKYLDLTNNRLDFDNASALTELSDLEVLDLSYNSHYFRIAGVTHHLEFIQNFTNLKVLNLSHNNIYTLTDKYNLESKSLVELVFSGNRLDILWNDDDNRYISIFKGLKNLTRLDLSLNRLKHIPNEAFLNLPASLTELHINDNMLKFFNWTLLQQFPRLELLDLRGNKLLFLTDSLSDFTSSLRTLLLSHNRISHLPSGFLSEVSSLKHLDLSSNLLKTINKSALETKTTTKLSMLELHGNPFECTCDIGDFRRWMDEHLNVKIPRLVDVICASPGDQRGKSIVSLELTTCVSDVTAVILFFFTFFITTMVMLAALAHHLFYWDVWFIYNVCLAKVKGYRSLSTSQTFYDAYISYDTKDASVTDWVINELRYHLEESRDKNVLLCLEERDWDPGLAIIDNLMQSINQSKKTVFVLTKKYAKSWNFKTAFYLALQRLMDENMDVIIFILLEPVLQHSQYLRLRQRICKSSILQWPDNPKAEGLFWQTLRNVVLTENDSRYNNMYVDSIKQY", "test": "TLR8 cellular reporter assay (HEK293, NFκB-luc)", "settings": "HEK293 transiently transfected with TLR8 and NFκB-luc; 6 hours incubation; lowest effective concentration", "procedure": "as §1, §2"}, "[2]": {"settings": "PBMC conditioned medium transferred to HEK-ISREluc cells, 24 hours, lowest effective concentration"}}, "note": "Like-named read-outs stand apart in the source and are kept apart here."}
{"smiles": "CCCC[C@@H](CCO)Nc1nc(N)nnc1OC", "note": "[Compound 12]", "values": [{"measurement": "Human TLR 7 (LEC)", "setting": "human TLR7", "result": 7.8, "unit": "µM"}, {"measurement": "minimal effective concentration", "setting": "[1]; [2]", "result": 2.72, "unit": "µM"}]}
{"smiles": "CCCCNc1nc(N)nnc1OCCCc1ccc(OC)cc1", "note": "[Compound 16]", "values": [{"measurement": "Human TLR 7 (LEC)", "setting": "human TLR7", "result": 0.38, "unit": "µM"}, {"measurement": "Human TLR 8 (LEC)", "setting": "human TLR8", "result": 0.81, "unit": "µM"}, {"measurement": "minimal effective concentration", "setting": "[1]; [2]", "result": 0.14, "unit": "µM"}]}
{"smiles": "CCC[C@@H](CCO)Nc1nc(N)nnc1OCc1nccc(OC)c1OC", "note": "[Compound 8]", "values": [{"measurement": "Human TLR 7 (LEC)", "setting": "human TLR7", "result": 0.24, "unit": "µM"}, {"measurement": "Human TLR 8 (LEC)", "setting": "human TLR8", "result": 0.56, "unit": "µM"}, {"measurement": "minimal effective concentration", "setting": "[1]; [2]", "result": 0.014, "unit": "µM"}]}
{"smiles": "CCCCNc1nc(N)nnc1OCc1cccnc1", "note": "[Compound 21]", "values": [{"measurement": "Human TLR 7 (LEC)", "setting": "human TLR7", "result": 1.71, "unit": "µM"}, {"measurement": "minimal effective concentration", "setting": "[1]; PBMC, 24 h", "result": 0.14, "unit": "µM"}]}
{"smiles": "CCCCNc1nc(N)nnc1OCc1ccccc1OC", "note": "[Compound 19]", "values": [{"measurement": "Human TLR 8 (LEC)", "setting": "human TLR8", "result": 0.64, "unit": "µM"}, {"measurement": "minimal effective concentration", "setting": "[1]; [2]", "result": 0.43, "unit": "µM"}]}
{"smiles": "CCCCNc1nc(N)nnc1OCc1ccccc1F", "note": "[Compound 20]", "values": [{"measurement": "Human TLR 7 (LEC)", "setting": "human TLR7", "result": 0.75, "unit": "µM"}, {"measurement": "minimal effective concentration", "setting": "[1]; PBMC, 24 h", "result": 0.54, "unit": "µM"}]}
{"smiles": "CCCCNc1nc(N)nnc1OC(C)C", "note": "[Compound 18]", "values": [{"measurement": "Human TLR 7 (LEC)", "setting": "human TLR7", "result": 8.27, "unit": "µM"}, {"measurement": "minimal effective concentration", "setting": "[1]; [2]", "result": 0.53, "unit": "µM"}]}
{"smiles": "CCCCNc1nc(N)nnc1OCCOC", "note": "[Compound 22]", "values": [{"measurement": "Human TLR 7 (LEC)", "setting": "human TLR7", "result": 4.75, "unit": "µM"}, {"measurement": "Human TLR 8 (LEC)", "setting": "human TLR8", "result": 1.0, "unit": "µM"}, {"measurement": "minimal effective concentration", "setting": "[1]; PBMC, 24 h", "result": 0.41, "unit": "µM"}]}
{"smiles": "CCCCNc1nc(N)nnc1OCc1ccccn1", "note": "[Compound 23]", "values": [{"measurement": "Human TLR 7 (LEC)", "setting": "human TLR7", "result": 0.17, "unit": "µM"}, {"measurement": "minimal effective concentration", "setting": "[1]; [2]", "result": 0.14, "unit": "µM"}]}
{"smiles": "CCCCNc1nc(N)nnc1OC", "note": "[Compound 17]", "values": [{"measurement": "Human TLR 7 (LEC)", "setting": "human TLR7", "result": 17.49, "unit": "µM"}, {"measurement": "minimal effective concentration", "setting": "[1]; [2]", "result": 1.02, "unit": "µM"}]}
{"smiles": "CCCCNc1nc(N)nnc1OCc1ccccc1", "note": "[Compound 15]", "values": [{"measurement": "Human TLR 7 (LEC)", "setting": "human TLR7", "result": 2.94, "unit": "µM"}, {"measurement": "Human TLR 8 (LEC)", "setting": "human TLR8", "result": 1.93, "unit": "µM"}, {"measurement": "minimal effective concentration", "setting": "[1]; [2]", "result": 1.85, "unit": "µM"}]}
{"smiles": "CCCCNc1nc(N)nnc1OCCCN(C)C", "note": "[Compound 24]", "values": [{"measurement": "Human TLR 7 (LEC)", "setting": "human TLR7", "result": ">25", "unit": "µM"}, {"measurement": "Human TLR 8 (LEC)", "setting": "human TLR8", "result": 0.1, "unit": "µM"}, {"measurement": "minimal effective concentration", "setting": "[1]; PBMC, 24 h", "result": 0.17, "unit": "µM"}]}
